The record followed here is patent publication EP1401829B1, “NOVEL HETEROCYCLIC ANTIBACTERIAL COMPOUNDS” (Microbiotix, Inc., priority 2001, dated 2002).

Test [1] has as its target T1, B. subtilis Pol IIIC (Bacillus subtilis, UniProt P13267).
T1 construct: made in house
The experiment in a line: Polymerase IIIC (Pol IIIC) assay, determination of Ki values. The test is classed as biochemical. To be noted: assay in absence of dGTP or dATP, Ki is the concentration that reduces control polymerase IIIC activity by 50 percent. How it is done:
(§1) The following methods were used to characterize representative compounds. Minimal Inhibitory Concentration (MIC) determinations. MIC values were determined in 96 well plates, with bacterial growth monitored at OD 600 nm in 200µl following an initial bacterial seeding at approximately 1x10^5 colony forming units (CFU)/ml. Each drug is evaluated at five concentrations, with five data points at each dilution. MIC values (µg/ml) were determined against actively growing cultures in Heart-Brain Infusion (HBI) medium. Cell growth in cultures supplemented with a test compound was calculated as a percent of control at OD 600 nm after 16 to 18 hours at 37°C. […] Polymerase IIIC (Pol IIIC) assay. DNA polymerase activity (or inhibition thereof) was measured in a 96-well plate format. B. subtilis Pol IIIC was isolated as described by Hammond and Brown (Protein Expr. Purif., 3: 65-70 (1992)). Each 25 µl assay contained 30 mM Tris, pH 7.5, 10 mM magnesium acetate, 4 mM dithiothreitol, 20% glycerol, with 25 µM dATP, dCTP, dGTP and 10 µM dTTP (^3H-labelled at 1.44 Ci/mmole) and 0.4 mg/ml activated calf thymus DNA as substrates, as described previously (see Barnes et al, op. cit). Assays were initiated by the addition of 0.025 to 0.06 units of enzyme 1 unit is the amount required to incorporate 250 pmoles of [^3H] dTMP in a standard assay), incubated for 10 minutes at 30°C and terminated by the addition of 200 µl of cold 10% trichloroacetic acid (TCA),10 mM sodium pyrophosphate. Precipitated labeled DNA was collected on glass fiber filter plates, washed, dried, and counted in a liquid scintillation counter. Determination of Ki values. DNA polymerase activity was measured in a 96-well plate format in the absence of dGTP or dATP, depending on the structure of the test compound. Each 25 µl assay contained 30 mM Tris, pH 7.5, 10 mM magnesium acetate, 4 mM dithiothreitol, 20% glycerol, with 25 µM dATP, dCTP, and 10 µM dTTP (^3H-labelled at 1.44 Ci/mmole) and 0.4 mg/ml activated calf thymus DNA as substrates, as described previously. […] Assays were initiated by the addition of 0.025 to 0.06 units of enzyme (1 unit is the amount required to incorporate 250 pmoles of [^3H] dTMP in a standard assay), incubated for 10 minutes at 30 °C and terminated by the addition of 200 µl of cold 10% trichloroacetic acid, 10 mM sodium pyrophosphate. Precipitated labeled DNA was collected on glass fiber filter plates, washed, dried, and counted in a liquid scintillation counter. Ki is the concentration of test compound that reduces the control polymerase IIIC activity by 50 percent.

Test [2] concerns B. subtilis. Nature of the test: Minimal Inhibitory Concentration (MIC) determination, 96 well plates. In kind it is cell-based, Bacillus subtilis. To be noted: for MIC: Bacillus subtilis, read-out: MIC (µg/ml) B. subtilis. How it is done:
as §1
(§2) MIC values were determined for the Gram positive bacteria Bacillus subtilis, Staphylococcus aureus (two strains), Enterococcus fecalis, Enterococcus fecium, and for the Gram negative bacterium Escherichia coli.

The test system of test [3] is S. aureus. The test is described as above. In kind it is cell-based, Staphylococcus aureus. Particulars: for MIC: Staphylococcus aureus, read-out: MIC (µg/ml) S. aureus. The method, then:
(§3) The following methods were used to characterize representative compounds. Minimal Inhibitory Concentration (MIC) determinations. MIC values were determined in 96 well plates, with bacterial growth monitored at OD 600 nm in 200µl following an initial bacterial seeding at approximately 1x10^5 colony forming units (CFU)/ml. Each drug is evaluated at five concentrations, with five data points at each dilution. MIC values (µg/ml) were determined against actively growing cultures in Heart-Brain Infusion (HBI) medium. Cell growth in cultures supplemented with a test compound was calculated as a percent of control at OD 600 nm after 16 to 18 hours at 37°C. This plate format conserves test compound and provides precise, quantitative data with low standard deviation determinations. Polymerase IIIC (Pol IIIC) assay. DNA polymerase activity (or inhibition thereof) was measured in a 96-well plate format. B. subtilis Pol IIIC was isolated as described by Hammond and Brown (Protein Expr. Purif., 3: 65-70 (1992)). Each 25 µl assay contained 30 mM Tris, pH 7.5, 10 mM magnesium acetate, 4 mM dithiothreitol, 20% glycerol, with 25 µM dATP, dCTP, dGTP and 10 µM dTTP (^3H-labelled at 1.44 Ci/mmole) and 0.4 mg/ml activated calf thymus DNA as substrates, as described previously (see Barnes et al, op. cit). Assays were initiated by the addition of 0.025 to 0.06 units of enzyme 1 unit is the amount required to incorporate 250 pmoles of [^3H] dTMP in a standard assay), incubated for 10 minutes at 30°C and terminated by the addition of 200 µl of cold 10% trichloroacetic acid (TCA),10 mM sodium pyrophosphate. Precipitated labeled DNA was collected on glass fiber filter plates, washed, dried, and counted in a liquid scintillation counter. Determination of Ki values. DNA polymerase activity was measured in a 96-well plate format in the absence of dGTP or dATP, depending on the structure of the test compound. Each 25 µl assay contained 30 mM Tris, pH 7.5, 10 mM magnesium acetate, 4 mM dithiothreitol, 20% glycerol, with 25 µM dATP, dCTP, and 10 µM dTTP (^3H-labelled at 1.44 Ci/mmole) and 0.4 mg/ml activated calf thymus DNA as substrates, as described previously. To each well were added 2 µl of compound solution to give final concentrations ranging from 20 - 0.027 µg/ml in the assay. Assays were initiated by the addition of 0.025 to 0.06 units of enzyme (1 unit is the amount required to incorporate 250 pmoles of [^3H] dTMP in a standard assay), incubated for 10 minutes at 30 °C and terminated by the addition of 200 µl of cold 10% trichloroacetic acid, 10 mM sodium pyrophosphate. Precipitated labeled DNA was collected on glass fiber filter plates, washed, dried, and counted in a liquid scintillation counter. Ki is the concentration of test compound that reduces the control polymerase IIIC activity by 50 percent.
as §2

Test [4] has as its system S.aureus (Smith). Described as above. In kind it is cell-based, Staphylococcus aureus. To be noted: for MIC: Staphylococcus aureus, read-out: MIC (µg/ml) S.aureus (Smith). The method, then:
as §1, §2

Test [5] has as its system E. fecalis. The description is as above. The test is classed as cell-based, Enterococcus fecalis. Particulars: for MIC: Enterococcus, read-out: MIC (µg/ml) E. fecalis. The method, then: as §1, §2
For test [6], the system named is E. fecium. The description is as above. To be noted: for MIC: Enterococcus, read-out: MIC (µg/ml) E. fecium. The test is classed as cell-based, Enterococcus fecium. How it is done: as §1, §2
Test [7] relates to E. coli. The test is described as above. The test is classed as cell-based, Escherichia coli. Particulars: HBI medium, 16 to 18 hours at 37°C; for MIC: Escherichia coli, read-out: MIC (µg/ml) E. coli. The method, then:
as §3, §2

[8] abbreviates: HBI medium, 16 to 18 hours at 37°C.

In brackets after ≈: the same amount, converted by molar mass. Read-outs that look alike come from different tables or passages of the source. Some results are limits rather than exact numbers.

T1 sequence (P13267 whole entry): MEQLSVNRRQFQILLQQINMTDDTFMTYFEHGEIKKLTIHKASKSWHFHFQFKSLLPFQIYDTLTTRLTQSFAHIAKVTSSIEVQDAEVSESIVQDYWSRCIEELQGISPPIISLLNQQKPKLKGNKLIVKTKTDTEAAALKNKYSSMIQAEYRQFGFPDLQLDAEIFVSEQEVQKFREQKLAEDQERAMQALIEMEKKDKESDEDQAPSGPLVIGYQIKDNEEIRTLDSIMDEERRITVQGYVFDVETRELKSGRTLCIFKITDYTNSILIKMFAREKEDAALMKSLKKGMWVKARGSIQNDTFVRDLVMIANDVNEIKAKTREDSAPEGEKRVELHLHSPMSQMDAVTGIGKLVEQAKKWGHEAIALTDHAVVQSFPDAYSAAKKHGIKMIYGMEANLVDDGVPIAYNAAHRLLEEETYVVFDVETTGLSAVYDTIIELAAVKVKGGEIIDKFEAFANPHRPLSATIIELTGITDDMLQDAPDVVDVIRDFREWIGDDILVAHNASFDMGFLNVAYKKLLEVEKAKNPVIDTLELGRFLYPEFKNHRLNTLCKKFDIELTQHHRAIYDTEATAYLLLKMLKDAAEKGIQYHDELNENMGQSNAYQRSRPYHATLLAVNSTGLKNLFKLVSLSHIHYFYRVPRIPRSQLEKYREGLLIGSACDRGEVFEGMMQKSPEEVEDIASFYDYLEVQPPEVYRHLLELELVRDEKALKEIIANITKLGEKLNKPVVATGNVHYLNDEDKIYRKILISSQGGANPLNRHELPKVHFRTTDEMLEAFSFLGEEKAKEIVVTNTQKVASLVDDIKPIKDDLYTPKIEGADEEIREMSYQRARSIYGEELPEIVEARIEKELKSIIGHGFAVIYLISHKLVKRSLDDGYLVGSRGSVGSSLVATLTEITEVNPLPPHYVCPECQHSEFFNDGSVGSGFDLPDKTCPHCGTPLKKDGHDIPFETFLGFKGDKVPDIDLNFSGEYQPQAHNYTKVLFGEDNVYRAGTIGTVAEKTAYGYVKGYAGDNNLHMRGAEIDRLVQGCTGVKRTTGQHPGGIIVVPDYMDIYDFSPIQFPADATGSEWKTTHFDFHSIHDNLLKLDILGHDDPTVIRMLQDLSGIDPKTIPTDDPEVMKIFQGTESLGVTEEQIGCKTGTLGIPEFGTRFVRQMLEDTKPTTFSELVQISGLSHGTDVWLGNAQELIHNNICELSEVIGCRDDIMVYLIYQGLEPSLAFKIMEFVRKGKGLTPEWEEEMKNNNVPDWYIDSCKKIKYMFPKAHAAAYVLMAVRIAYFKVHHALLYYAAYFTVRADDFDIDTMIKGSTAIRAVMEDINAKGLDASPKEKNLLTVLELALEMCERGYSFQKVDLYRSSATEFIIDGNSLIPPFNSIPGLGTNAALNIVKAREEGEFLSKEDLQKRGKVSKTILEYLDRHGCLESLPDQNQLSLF

Regarding “3-{5-[1-(1-ethyl-3-carboxy-4-oxo-6,8-difluoro-7-quinolyl)-3-(1,3-diazabicyclononyl)]pentyl}-6-(3-ethyl-4-methylanilino)uracil [Compound 88]”, the inhibitory constant (Ki) in test [1] (read-out: Ki (µM) Pol IIIC) came out at 0.024 µM. Moreover, the “MIC (µg/ml) B. subtilis” value in test [2] (setting [8]) is 0.625 µg/mL. Also, the “MIC (µg/ml) S. aureus” value in test [3] (setting [8]) stood at 1.25 µg/mL. The “MIC (µg/ml) S.aureus (Smith)” value in test [4] (setting [8]) came out at 1.25 µg/mL. Further, the “MIC (µg/ml) E. fecalis” value in test [5] (setting [8]) was 2.5 µg/mL. Also, the “MIC (µg/ml) E. fecium” value in test [6] (setting [8]) turned out to be 5 µg/mL. Besides, the “MIC (µg/ml) E. coli” value in test [7] was above 20 µg/mL.
`CCc1cc(Nc2cc(=O)n(CCCCN3CCN(c4cc5c(cc4F)c(=O)c(C(=O)O)cn5CC)CC3)c(=O)[nH]2)ccc1C` [Compound 1, 3-{4-[1-(1-ethyl-3-carboxy-4-oxo-6-fluoro-7-quinolyl)-4-piperazinyl]butyl}-6-(3-ethyl-4-methylanilino)uracil]: in test [1] (Ki (µM) Pol IIIC), affinity was put at a Ki of 0.024 µM. The MIC in test [2] (setting [8]) was 0.156 µg/mL (≈ 0.252 µM); in test [3] (setting [8]), 0.625 µg/mL (≈ 1.01 µM); in test [4] (setting [8]), 0.625 µg/mL (≈ 1.01 µM); in test [5] (setting [8]), 1.25 µg/mL (≈ 2.02 µM); in test [6] (setting [8]) it was 1.25 µg/mL (≈ 2.02 µM); in test [7], above 20 µg/mL.
`CCc1cc(Nc2cc(=O)n(CCCCCCCN3CCN(c4cc5c(cc4F)c(=O)c(C(=O)O)cn5C4CC4)CC3)c(=O)[nH]2)ccc1C` [Compound 8, 3-{7-[1-(1-cyclopropyl-3-carboxy-4-oxo-6-fluoro-7-quinolyl)-4-piperazinyl]heptyl}-6-(3-ethyl-4-methylanilino)uracil] came in with a Ki in test [1] (Ki (µM) Pol IIIC) of 0.013 µM. Moreover, the MIC in test [2] (setting [8]) was 0.313 µg/mL (≈ 0.465 µM); in test [3] (setting [8]), 1.25 µg/mL (≈ 1.86 µM); in test [4] (setting [8]) it was 0.625 µg/mL (≈ 0.929 µM); in test [5] (setting [8]) it was 10 µg/mL (≈ 14.9 µM); in test [6] (setting [8]), above 80 µg/mL; in test [7], 40 µg/mL (≈ 59.5 µM).
Regarding `CCc1cc(Nc2cc(=O)n(CCOCCN3CCN(c4cc5c(cc4F)c(=O)c(C(=O)O)cn5C4CC4)CC3)c(=O)[nH]2)ccc1C` [Compound 11, 3-{2-[1-(1-cyclopropyl-3-carboxy-4-oxo-6-fluoro-7-quinolyl)-4-piperazinyl]ethoxyethyl}-6-(3-ethyl-4-methylanilino)uracil], in test [1] (Ki (µM) Pol IIIC), the Ki amounted to 0.03 µM. Moreover, the MIC is 1.25 µg/mL (≈ 1.93 µM) in test [2] (setting [8]); 5 µg/mL (≈ 7.73 µM) in test [3] (setting [8]); 2.5 µg/mL (≈ 3.87 µM) in test [4] (setting [8]); 10 µg/mL (≈ 15.5 µM) in test [5] (setting [8]); 5 µg/mL (≈ 7.73 µM) in test [6] (setting [8]); above 80 µg/mL in test [7].
In test [1] (Ki (µM) Pol IIIC), `CCc1cc(Nc2cc(=O)n(CCCCCN3CCN(c4cc5c(cc4F)c(=O)c(C(=O)O)cn5C4CC4)CC3)c(=O)[nH]2)ccc1C` [Compound 15, 3-{5-[1-(1-cyclopropyl-3-carboxy-4-oxo-6-fluoro-7-quinolyl)-4-piperazinyl]pentyl}-6-(3-ethyl-4-methylanilino)uracil] displayed a Ki of 0.03 µM. Moreover, the MIC in test [2] (setting [8]) amounted to 0.156 µg/mL (≈ 0.242 µM); in test [3] (setting [8]), 0.625 µg/mL (≈ 0.969 µM); in test [4] (setting [8]) it was 0.313 µg/mL (≈ 0.485 µM); in test [5] (setting [8]) it was 0.625 µg/mL (≈ 0.969 µM); in test [6] (setting [8]) it was 1.25 µg/mL (≈ 1.94 µM); in test [7], 5 µg/mL (≈ 7.75 µM).
In test [1] (Ki (µM) Pol IIIC), `Cc1ccc(Nc2cc(=O)n(CCCCN3CCN(c4cc5c(cc4F)c(=O)c(C(=O)O)cn5C4CC4)CC3)c(=O)[nH]2)cc1Cl` [Compound 64, 3-{4-[1-(1-cyclopropyl-3-carboxy-4-oxo-6-fluoro-7-quinolyl)-4-piperazinyl]butyl}-6-(3-chloro-4-methylanilino)uracil] displayed an inhibitory constant (Ki) of 0.055 µM. Moreover, the MIC in test [2] (setting [8]) turned out to be 0.313 µg/mL (≈ 0.491 µM); in test [3] (setting [8]) it was 1.25 µg/mL (≈ 1.96 µM); in test [4] (setting [8]) it was 0.625 µg/mL (≈ 0.981 µM); in test [5] (setting [8]), 1.87 µg/mL (≈ 2.94 µM); in test [6] (setting [8]) it was 3.7 µg/mL (≈ 5.81 µM); in test [7], 7.5 µg/mL (≈ 11.8 µM).
On to `CCc1cc(Nc2ccc(NC(=O)N3CCN(c4cc5c(cc4F)c(=O)c(C(=O)O)cn5CC)CC3)c(=O)[nH]2)ccc1C` [Compound 77, 3-{[1-(1-ethyl-3-carboxy-4-oxo-6-fluoro-7-quinolyl)-4-piperazinyl]carboxamido}-6-(3-ethyl-4-methylanilino)-2-pyridone], for which the MIC in test [2] was 5 µg/mL (≈ 8.49 µM); in test [3], 2.5 µg/mL (≈ 4.25 µM); in test [4], 2.5 µg/mL (≈ 4.25 µM); in test [5], above 80 µg/mL; in test [6] it was above 80 µg/mL; in test [7] it was above 80 µg/mL.

Broadly, the Ki is the dissociation constant of the complex between target and ligand, obtained from inhibition or displacement.
